9 compounds from patent US20250197374A1, “WEE1 DEGRADING COMPOUNDS AND USES THEREOF” (BRISTOL-MYERS SQUIBB COMPANY, priority 2023, published 2025) can be followed below.

Holding throughout (format): cell-based
The subject of test [1] is MDA-MB-231 cells. Description: MDA-MB-231 cell proliferation assay (Cell-Titer-Glo, 120 hr). The conditions noted are these: for EC50: read-out: MDA-MB 231 Cell Prolif. 120 hr EC50; for MDA-MB 231 Cell Prolif. 120 hr YMin (%): minimal percent of DMSO control observed. The source says: (§1) MKN45 cells were obtained from Celgene internal cell banks and cultured in RPMI complete media (RPMI-1640, 1× Penicillin/Streptomycin, 1× glutamine, 1× Sodium Pyruvate, Non-essential Amino Acids, 10% Fetal Bovine serum, all component from Thermo-Fisher). MDA-MB-231 cells were obtained from the ATCC (HTB-26) and cultured in RPMI-1640 and 10% Fetal Bovine serum; MDA-MB-231 cells were expanded and stored as aliquots in liquid nitrogen in Celgene internal cell banks. Compounds were dispensed into 384-well plates using an HP DE300 compound printer in triplicate with 8 compounds on each plate. Compounds were dispensed into 384-well black clear bottom plates (Corning #3764BC) using an EDC acoustic dispenser at BMS. For each compound, a 10-point dose response was printed at half-log dilutions starting at either 1 uM or 10 uM in triplicate for MKN45 cells and in duplicate for MDA-MB-231 cells. The DMSO concentration was kept constant for a final assay concentration of 0.1% per well assuming 50 ul final media volume. Compound plates were sealed and frozen at −20 C until use.
(§2) For each assay batch, compound plates were thawed and allowed to reach room temperature, and cells were seeded at 400 MKN45 cells per well, or 800 MDA-MB-231 cells per well, in 50 ul media listed above for each cell line. After 120 hours of incubation at 37 C and 5% CO2, cells were lysed by addition of 25 μL of Cell-Titer-Glo Reagent (Promega Corporation, Madison, WI), as per manufacturer's instructions, protected from light, shaken for 45 minutes, and total luminescence read by a Perkin Elmer Envision plate reader. Total luminescence signal is linearly correlated with cell number remaining in the well.
(§3) Luminescence data was processed per plate by subtracting reagent-only “blank” well luminescence from all measured values and calculating a percent of DMSO control value for each treatment well. Then, to determine the half-maximal effective concentration (EC50) values for cell growth inhibition, a four parameter logistic model was fit to the data for each DMSO-normalized compound: Sigmoidal Dose-Response Model: (FIT=(A+((B−A)/1+((C/x)^D)))) where C is the inflection point ([…]), D is the Hill slope, and A and B are the low and high limits of the fit respectively. The lower limit of the fit (value A) is referred to as Ymin-calculated. The minimal percent of DMSO control that is observed in the concentrations tested for each compound is labeled as “Ymin-obs”, and was recorded and reported in the tables. Sigmoidal fit curves were processed and evaluated using Activity Base (IDBS, Alameda, CA) or using Dotmatics (Boston, MA). N/A=not available at the present time.

Test [2] deals with T1, WEE1 (Homo sapiens, UniProt P30291+Q96SW2).
T1 construct: C-terminal ePL-tagged (DiscoverX, Fremont, CA) full-length WEE1 expression construct; expressed in transfected cells; host or cells: LentiX-HEK293T (Invitrogen), lentivirally transduced; the cells also over-express GSPT1-GN
Description: WEE1-ePL degradation assay (293T-LentiX, InCELL Hunter luminescence, 4 hr). The conditions noted are these: for DC50: LentiX-HEK293T cells expressing WEE1-ePL, 4 hr incubation, read-out: 293T-LentiX WEE1-ePL Degradation 4 hr EC50; for 293T-LentiX WEE1-ePL Degradation 4 hr YMin (%): lower limit of fit, % of DMSO control signal remaining. An excerpt: To generate LentiX-WEE1-ePL-GSPT1-ND cells for the WEE1 degradation assay, LentiX-HEK293T (Invitrogen) were tranduced by lentivirus with a C-terminal ePL-tagged (DiscoverX, Fremont, CA) full-length WEE1 expression construct. A separate lentiviral construct was introduced to over-express a mutated form of GSPT1 (NP_002085), termed GSPT1-GN, which contains a G575N mutation and is further truncated in the first 158 amino acids. GSPT1-GN is functional but not degradable by Cereblon. Cells were selected and maintained in complete DMEM media (DMEM, 10% Heat Inactivated FBS, 400 μg/mL Geneticin, and 1 μg/mL puromycin at 37 C and 5% CO2). Cells were passaged every 3-4 days by reseeding 1×10^6 cells in a T150 flask.
Cells were dispensed into 384-well white plates (Corning #3570, NY) that were pre-spotted with compounds using an acoustic dispenser (Echo acoustic transfer system, Beckman Coulter Life Sciences, Carlsbad, CA) as a 10-point dose-response curve with a 3-fold dilution starting at either 1 uM or 10 uM and including a DMSO control. Twenty-five microliters of media containing 2500 cells for LentiX-oeWEE1-ePL was dispensed per well. Assay plates were incubated at 37° C. with 5% CO2 for four hours (WEE1) After incubation, 25 μL of the InCELL Hunter™ Detection Reagent Working Solution (DiscoverX, Fremont, CA) was added to each well and incubated at room temperature for 30 minutes protected from light. After 30 minutes, luminescence was read on a PHERAstar luminometer (Cary, NC).
To determine the half-maximal effective concentration (EC50) values for WEE1-ePL degradation, a four parameter logistic model was used: (Sigmoidal Dose-Response Model) (FIT=(A+((B−A)/1+((C/x)^D)))) where C is the inflection point (EC50), D is the Hill slope, and A and B are the low and high limits of the fit respectively). The lower limit of the fit (value A) is referred to as Ymin. […] The maximum limit constraint, Ymax, is similarly derived using DMSO control. The curves were processed and evaluated using Activity Base (IDBS, Alameda, CA) or using Dotmatics (Boston, MA).

Test [3] has as its system MKN45 cells. Description: MKN45 cell proliferation assay (Cell-Titer-Glo, 120 hr). The conditions noted are these: for EC50: read-out: MKN45 Cell Prolif. 120 hr EC50; for MKN45 Cell Prolif. 120 hr YMin (%): minimal percent of DMSO control observed.
Excerpt: as §1, §2, §3

The mark [4] stands for this setting: Homo sapiens, MDA-MB-231, 120 h.

Like-named read-outs stand apart in the source and are kept apart here.

T1 sequence (P30291 whole entry): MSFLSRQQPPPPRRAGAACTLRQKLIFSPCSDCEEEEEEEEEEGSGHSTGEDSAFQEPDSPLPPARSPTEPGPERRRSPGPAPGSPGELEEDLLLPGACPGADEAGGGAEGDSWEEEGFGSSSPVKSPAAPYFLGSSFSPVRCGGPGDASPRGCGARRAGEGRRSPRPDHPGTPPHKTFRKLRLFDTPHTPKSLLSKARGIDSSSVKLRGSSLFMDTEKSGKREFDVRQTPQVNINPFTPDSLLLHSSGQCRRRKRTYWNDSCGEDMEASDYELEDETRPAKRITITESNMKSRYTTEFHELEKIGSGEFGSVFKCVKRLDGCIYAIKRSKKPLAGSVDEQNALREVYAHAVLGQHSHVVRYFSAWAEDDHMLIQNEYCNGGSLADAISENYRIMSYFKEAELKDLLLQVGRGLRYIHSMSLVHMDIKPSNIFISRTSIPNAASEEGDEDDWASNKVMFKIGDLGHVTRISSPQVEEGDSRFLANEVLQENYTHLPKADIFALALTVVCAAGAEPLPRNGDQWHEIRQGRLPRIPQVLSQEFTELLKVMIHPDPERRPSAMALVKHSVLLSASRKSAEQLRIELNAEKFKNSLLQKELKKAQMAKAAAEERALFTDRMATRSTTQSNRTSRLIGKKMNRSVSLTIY
T1 sequence (Q96SW2 whole entry): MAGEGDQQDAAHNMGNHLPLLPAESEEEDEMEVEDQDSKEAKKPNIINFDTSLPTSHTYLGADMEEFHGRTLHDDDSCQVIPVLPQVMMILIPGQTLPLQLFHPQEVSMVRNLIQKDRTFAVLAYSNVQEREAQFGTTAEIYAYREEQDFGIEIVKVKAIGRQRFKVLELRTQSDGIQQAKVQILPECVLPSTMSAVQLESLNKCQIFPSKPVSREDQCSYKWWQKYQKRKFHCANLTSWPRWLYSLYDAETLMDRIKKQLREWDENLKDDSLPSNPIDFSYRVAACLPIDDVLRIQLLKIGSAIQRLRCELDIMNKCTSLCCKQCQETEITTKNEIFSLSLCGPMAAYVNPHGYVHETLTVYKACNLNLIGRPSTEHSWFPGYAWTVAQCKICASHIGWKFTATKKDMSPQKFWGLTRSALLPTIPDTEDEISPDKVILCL
T1 sequence (Q16531 whole entry partner): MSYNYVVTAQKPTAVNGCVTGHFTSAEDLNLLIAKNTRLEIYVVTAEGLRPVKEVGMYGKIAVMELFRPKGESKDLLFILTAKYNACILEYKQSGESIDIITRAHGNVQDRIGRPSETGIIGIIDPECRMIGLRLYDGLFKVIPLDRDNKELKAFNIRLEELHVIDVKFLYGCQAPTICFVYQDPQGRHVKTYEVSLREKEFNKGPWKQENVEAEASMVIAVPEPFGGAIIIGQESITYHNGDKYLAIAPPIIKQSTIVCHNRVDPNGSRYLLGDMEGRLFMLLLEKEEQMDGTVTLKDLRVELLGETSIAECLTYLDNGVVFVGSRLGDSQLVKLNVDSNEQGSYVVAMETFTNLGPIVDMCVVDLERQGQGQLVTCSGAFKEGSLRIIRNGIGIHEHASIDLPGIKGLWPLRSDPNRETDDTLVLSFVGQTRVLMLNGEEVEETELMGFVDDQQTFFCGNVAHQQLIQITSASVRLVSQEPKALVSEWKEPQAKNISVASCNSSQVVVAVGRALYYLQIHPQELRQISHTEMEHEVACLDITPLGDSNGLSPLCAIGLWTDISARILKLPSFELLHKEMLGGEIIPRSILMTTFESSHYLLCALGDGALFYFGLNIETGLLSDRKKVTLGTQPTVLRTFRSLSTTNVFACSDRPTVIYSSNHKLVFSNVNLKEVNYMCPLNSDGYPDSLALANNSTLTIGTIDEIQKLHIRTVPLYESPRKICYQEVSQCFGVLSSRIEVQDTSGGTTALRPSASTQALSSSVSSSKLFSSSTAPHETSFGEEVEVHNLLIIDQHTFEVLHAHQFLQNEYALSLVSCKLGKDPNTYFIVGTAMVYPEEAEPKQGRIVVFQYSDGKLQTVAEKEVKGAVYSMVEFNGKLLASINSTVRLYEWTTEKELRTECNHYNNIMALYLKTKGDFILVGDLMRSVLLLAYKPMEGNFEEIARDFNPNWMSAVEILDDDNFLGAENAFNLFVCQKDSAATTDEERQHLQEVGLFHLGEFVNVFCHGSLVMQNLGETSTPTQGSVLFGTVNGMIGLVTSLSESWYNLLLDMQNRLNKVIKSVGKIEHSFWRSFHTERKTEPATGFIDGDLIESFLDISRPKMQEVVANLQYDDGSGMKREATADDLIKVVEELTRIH

With `COC[C@@H]1CN(Cc2cc(F)c3nc(C4CCCO4)ncc3c2)C[C@H]1Oc1ccc2c(c1)CN([C@H]1CCC(=O)NC1=O)C2=O` (mixture of isomers) [Example 76, rel-(3S)-3-(5-{[(3S,4S)-1-{[8-fluoro-2-(oxolan-2-yl)quinazolin-6-yl]methyl}-4-(methoxymethyl)pyrrolidin-3-yl]oxy}-1-oxo-2,3-dihydro-1H-isoindol-2-yl)piperidine-2,6-dione], the 50% effective concentration (EC50) was 99 nM in test [1] (setting [4]) and 11 nM in test [3] (Homo sapiens, MKN-45, 120 h). In test [1], the “MDA-MB 231 Cell Prolif. 120 hr YMin (%)” value is listed as 17.9%. In addition, in test [2], the DC50 turned out to be 41 nM. Besides, the “293T-LentiX WEE1-ePL Degradation 4 hr YMin (%)” value in test [2] was found to be 25.5%. Moreover, the “MKN45 Cell Prolif. 120 hr YMin (%)” value in test [3] came to 9.4%.
Regarding `CC(C)(O)[C@@H]1CN(Cc2ccc3nc(C4CCOCC4)ccc3c2)C[C@H]1Oc1ccc2c(c1)CN([C@H]1CCC(=O)NC1=O)C2=O` (racemic) [Example 137, rel-(3S)-3-(5-((4-(2-hydroxypropan-2-yl)-1-((2-(tetrahydro-2H-pyran-4-yl)quinolin-6-yl)methyl)pyrrolidin-3-yl)oxy)-1-oxoisoindolin-2-yl)piperidine-2,6-dione], the concentration for a half-maximal effect (EC50) in test [1] (setting [4]) came out at 61 nM. For the same compound, in test [1], the “MDA-MB 231 Cell Prolif. 120 hr YMin (%)” value is 77.3%. Further, in test [2], the DC50 was 12 nM and the “293T-LentiX WEE1-ePL Degradation 4 hr YMin (%)” value was 40.9%. Moreover, the EC50 in test [3] (Homo sapiens, MKN-45, 120 h) was 233 nM. The “MKN45 Cell Prolif. 120 hr YMin (%)” value in test [3] stood at 70.6%.
Consider `COC(C)(C)[C@@H]1CN(Cc2ccc3nc(C4CCOCC4)ccc3c2)C[C@H]1Oc1ccc2c(c1)CN([C@H]1CCC(=O)NC1=O)C2=O` (racemic) [Example 138, (3S)-3-(5-((4-(2-methoxypropan-2-yl)-1-((2-(tetrahydro-2H-pyran-4-yl)quinolin-6-yl)methyl)pyrrolidin-3-yl)oxy)-1-oxoisoindolin-2-yl)piperidine-2,6-dione], for which the 50% effective concentration (EC50) in test [1] (setting [4]) was at least 10300 nM. For the same compound, the “MDA-MB 231 Cell Prolif. 120 hr YMin (%)” value in test [1] is 94.6%. Further, in test [2], the DC50 came to 3 nM and the “293T-LentiX WEE1-ePL Degradation 4 hr YMin (%)” value amounted to 48.1%. In addition, the EC50 in test [3] (Homo sapiens, MKN-45, 120 h) turned out to be 348 nM. Further, the “MKN45 Cell Prolif. 120 hr YMin (%)” value in test [3] was 80.2%.
Take `CN1CC[C@]2(C[C@H](c3ccc4cc(CN5CC[C@H](Oc6ccc7c(c6)CN([C@H]6CCC(=O)NC6=O)C7=O)C5)ccc4n3)CO2)C1` (relative stereo) [Example 3, rel-(3S)-3-(5-(((3S)-1-((2-(7-methyl-1-oxa-7-azaspiro[4.4]nonan-3-yl)quinolin-6-yl)methyl)pyrrolidin-3-yl)oxy)-1-oxoisoindolin-2-yl)piperidine-2,6-dione]: in test [1] (setting [4]), the EC50 came to 129 nM. In addition, the “MDA-MB 231 Cell Prolif. 120 hr YMin (%)” value in test [1] is reported as 61.3%. Moreover, in test [2], the DC50 stood at 10 nM and the “293T-LentiX WEE1-ePL Degradation 4 hr YMin (%)” value amounted to 28.1%. Further, the EC50 in test [3] (Homo sapiens, MKN-45, 120 h) was 19 nM. For the same compound, the “MKN45 Cell Prolif. 120 hr YMin (%)” value in test [3] worked out at 13.0%.
Consider `O=C1CC[C@H](N2Cc3cc(O[C@H]4CCN(Cc5ccc6nc([C@@H]7CCO[C@@]8(CCOC8)C7)ccc6c5)C4)ccc3C2=O)C(=O)N1` (relative stereo) [Example 20, rel-(3S)-3-(5-(((3S)-1-((2-(2,6-dioxaspiro[4.5]decan-9-yl)quinolin-6-yl)methyl)pyrrolidin-3-yl)oxy)-1-oxoisoindolin-2-yl)piperidine-2,6-dione], for which the EC50 in test [1] (setting [4]) was 101 nM; in test [3] (Homo sapiens, MKN-45, 120 h), 5 nM. In addition, the “MDA-MB 231 Cell Prolif. 120 hr YMin (%)” value in test [1] came to 60.2%. The DC50 in test [2] was 1 nM. The “293T-LentiX WEE1-ePL Degradation 4 hr YMin (%)” value in test [2] stood at 30.3%. Moreover, the “MKN45 Cell Prolif. 120 hr YMin (%)” value in test [3] came to 11.6%.
As for `O=C1CC[C@H](N2Cc3cc(O[C@H]4CCN(Cc5ccc6nc([C@@H]7CCO[C@]8(CCOC8)C7)ccc6c5)C4)ccc3C2=O)C(=O)N1` (relative stereo) [Example 21, rel-(3S)-3-(5-(((3S)-1-((2-(2,6-dioxaspiro[4.5]decan-9-yl)quinolin-6-yl)methyl)pyrrolidin-3-yl)oxy)-1-oxoisoindolin-2-yl)piperidine-2,6-dione], the EC50 in test [1] (setting [4]) stood at 129 nM; in test [3] (Homo sapiens, MKN-45, 120 h) it was 2 nM. Besides, in test [1], the “MDA-MB 231 Cell Prolif. 120 hr YMin (%)” value is listed as 41.9%. The DC50 in test [2] was determined as 1 nM. Further, in test [2], the “293T-LentiX WEE1-ePL Degradation 4 hr YMin (%)” value was 29.8%. The “MKN45 Cell Prolif. 120 hr YMin (%)” value in test [3] is reported as 9.9%.
For the compound `O=C1CC[C@H](N2Cc3cc(O[C@H]4CCN(Cc5ccc6nc([C@H]7CCO[C@@]8(CCOC8)C7)ccc6c5)C4)ccc3C2=O)C(=O)N1` (relative stereo) [Example 22, rel-(3S)-3-(5-(((3S)-1-((2-(2,6-dioxaspiro[4.5]decan-9-yl)quinolin-6-yl)methyl)pyrrolidin-3-yl)oxy)-1-oxoisoindolin-2-yl)piperidine-2,6-dione], the EC50 in test [1] (setting [4]) amounted to 39 nM; in test [3] (Homo sapiens, MKN-45, 120 h), 2 nM. In test [1], the “MDA-MB 231 Cell Prolif. 120 hr YMin (%)” value was 42.5%. For the same compound, the DC50 in test [2] worked out at 1 nM. For the same compound, in test [2], the “293T-LentiX WEE1-ePL Degradation 4 hr YMin (%)” value is 31.3%. The “MKN45 Cell Prolif. 120 hr YMin (%)” value in test [3] was 10.8%.
On to `O=C1CCC(N2C(=O)c3ccc(O[C@H]4CCN(Cc5ccc6nc(N7CCOCC7)ncc6c5)C4)cc3C2=O)C(=O)N1` (single isomer, unassigned) [Example 12, 2-((S*)-2,6-dioxopiperidin-3-yl)-5-(((S)-1-((2-morpholino-quinazolin-6-yl)methyl)pyrrolidin-3-yl)oxy)isoindoline-1,3-dione], for which the EC50 in test [1] (setting [4]) stood at 2720 nM; in test [3] (Homo sapiens, MKN-45, 120 h), 337 nM. The “MDA-MB 231 Cell Prolif. 120 hr YMin (%)” value in test [1] is 79.6%. The “MKN45 Cell Prolif. 120 hr YMin (%)” value in test [3] was 40.6%.
Consider `O=C1CCC(N2C(=O)c3ccc(O[C@H]4CCN(Cc5ccc6nc(N7CCOCC7)ncc6c5)C4)cc3C2=O)C(=O)N1` (single isomer, unassigned) [Example 27, 2-((R*)-2,6-dioxopiperidin-3-yl)-5-(((S)-1-((2-morpholino-quinazolin-6-yl)methyl)pyrrolidin-3-yl)oxy)isoindoline-1,3-dione], for which, in test [1], the “MDA-MB 231 Cell Prolif. 120 hr YMin (%)” value is listed as 81.8% and the EC50 came out at 2990 nM. Also, in test [3], the “MKN45 Cell Prolif. 120 hr YMin (%)” value was found to be 29.1% and the EC50 was found to be 205 nM.

Usually EC50 stands for the concentration needed to bring the measured effect to its halfway point.
